These results are taken from patent US8647835B2, “Methods for separation, characterization and/or identification of microorganisms using spectroscopy” (bio Mérieux, Inc., priority 2008, dated 2014).

Type in all cases: cell-based
In experiment [1] the test system is Streptococcus pneumoniae, strain WM-43. In words: Intrinsic fluorophores of S. pneumoniae pellet after detergent lysis buffer. The following applies: for Flavin / NADH / Tryptophan: intrinsic fluorophore level of S. pneumoniae cell pellet, detergent in 0.3M CAPS, pH 11.7; for NADH/Flavin: ratio of fluorescence signals of S. pneumoniae cell pellet; for Flavin/NADH surrogate marker for viability: S. pneumoniae cell pellet. Here is the method: (§1) Lysis buffers were prepared containing detergents of differing structure and lytic activity in a base buffer formulation of 0.3M CAPS, pH 11.7. These lysis buffers were functionally assessed using positive blood culture broth containing a clinical microorganism strain known to be sensitive to detergents and alkaline pH conditions, Streptococcus pneumoniae, strain WM-43. Parameters evaluated were microbial intrinsic fluorescence levels (Excitation-Emission Matrix spectra), separation efficiency, appearance of isolated microbial pellet, and Gram stain characteristics and viability of microorganisms recovered from the pellet beneath the density cushion.
(§2) The procedure was performed as follows:
(§3) Mix 2 parts of positive broth with 1 part of test lysis buffer, incubate in a 37 C water bath for 1 minute to lyse blood cells, then layer 0.5 mL of lysate over 0.2 mL of density cushion (14% w/v Iohexyl+1.93% w/v NaCl+10 mM Hepes, pH 7.4) dispensed into a 2-piece optical separation tube which was then hermetically sealed with a screw-cap. After centrifuging the tube in an Eppendorf® 5417R micrcentrifuge fitted with a A-8-11 swing out rotor (Eppendorf, New York) for 2 minutes at 10,000 rpm, the tube was placed into a custom-built adapter which coupled the base of the tube directly to a 400 micron fiber optic probe connected to a spectrofluorimeter (Fluorolog® 3 (HORIBA Jobin Yvon Inc., New Jersey), and a complete EEM scan was taken (Ex 260-850 nm; Em 260-1100 nm; every 5 nm). Following the scan, the supernatant was removed and the microbial pellet resuspended in 0.5 mL of Tryptic Soy Broth (TSB). Smears of the suspensions were prepared for Gram staining and twenty microliters of a 1:100 dilution were plated onto Sheep Blood Agar plates for viability estimation on a scale of NG (no growth) to 4+ (maximal growth).
The effect of the test detergents on the level of intrinsic fluorophores present within the S. pneumoniae cell pellet is shown in Table 5. As taught by the results presented in Example 3, the ratio of Flavin to NADH fluorescence is an excellent indicator of this sensitive microbe's health. Low ratios are associated with reduced microbial viability, such as observed with n-octyl glucoside and CHAPS detergents. The four groups represented in Table 5 fall into categories that directly correlate with the alterations observed in Gram reactivity of the S. pneumoniae cells recovered from the pellet (Table 4).

For experiment [2] the test system is unchanged. In words: Gram stain and viability of S. pneumoniae recovered from pellet after detergent lysis buffer. The following applies: for Viability of Pellet: 1:100 dilution plated onto Sheep Blood Agar, scale NG to 4+. Here is the method:
as §1, §2, §3

Experiment [3] deals with S. pneumoniae strain, WM43. In words: Viability of recovered S. pneumoniae with lysis buffer / density cushion combinations (Example 7). The note with it: irrespective of the makeup of the density cushion.

Regarding “(Octylphenoxy)polyethoxyethanol [Detergent 4]”, in experiment [1], the Flavin is given as 38,703, the NADH is given as 1,300,815, the Tryptophan is 1,019,649 and the NADH/Flavin worked out at 33.6.
Turning to “polyoxyethylene (20) oleyl ether [Detergent 12]”, in experiment [1], the “Flavin/NADH surrogate marker for viability” value (“Flavin/NADH surrogate marker” below) is “significant improvement”, the Flavin is on record as 29,781, the NADH is recorded as 1,703,221 and the Tryptophan is recorded as 1,047,866. Moreover, the NADH/Flavin in experiment [1] worked out at 57.2.
Regarding `CCCCCCCCO[C@@H]1O[C@H](CO)[C@@H](O)[C@H](O)[C@H]1O` [Detergent 1, n-octyl glucoside], in experiment [1], the “Flavin/NADH surrogate marker” value was “Low ratios”, the Flavin is reported as 71,678, the NADH is on record as 33,268 and the Tryptophan was 606,171. In addition, the NADH/Flavin in experiment [1] amounted to 0.5. Moreover, in experiment [2], the “Viability of Pellet” value is given as “No growth”. Also, the “Gram Stain of Pellet, Bacteria (cocci): Gram positive” value in experiment [2] (detergent at table concentration (0.45-3.0%) in 0.3M CAPS, pH 11.7, 1 minute 37 C, 'No organisms seen' applies to all cocci) was “No organisms seen”.
On to `C[C@H](CCC(=O)NCCC[N+](C)(C)CCCS(=O)(=O)[O-])[C@H]1CC[C@H]2[C@@H]3[C@H](O)C[C@@H]4C[C@H](O)CC[C@]4(C)[C@H]3C[C@H](O)[C@]12C` [Detergent 2, CHAPS], for which, in experiment [1], the “Flavin/NADH surrogate marker” value is “Low ratios”, the Flavin was 77,403, the NADH is listed as 55,976 and the Tryptophan is recorded as 607,343. In addition, the NADH/Flavin in experiment [1] came out at 0.7. Also, the “Viability of Pellet” value in experiment [2] was “Scant”. Moreover, the “Gram Stain of Pellet, Bacteria (cocci): Gram negative” value in experiment [2] (detergent at table concentration (0.45-3.0%) in 0.3M CAPS, pH 11.7, 1 minute 37 C) was “Rare Gram”.
Take `CCCCCCCCCCCCOCCOCCOCCOCCOCCOCCOCCOCCOCCO` [Detergent 6, nonaethylene glycol monododecyl ether]: the NADH/Flavin in experiment [1] turned out to be 34.5. For the same compound, the “viability of the recovered S. pneumoniae cells” value in experiment [3] is reported as “not as high”. Further, the “effect on Gram reaction / Gram reactivity of S. pneumoniae isolate” value in experiment [2] (desired lysis conditions of Example 6) was “relatively minor effect”.
